Holding throughout (type): cell-based, influenza virus
For one assay, the system named is IFV A/PR/8/34. The assay is described as follows: cytopathic effect (CPE) antiviral test in MDCK cells, IFV A/PR/8/34. The settings on record: unidentified influenza virus, PR/8, MDCK, 120 h, read-out: EC50(IFV A/PR/8/34). In general terms: Damage to the host cells serves as the signal in cytopathic effect assays.
The next assay has as its system IFVA/Weiss/43. The assay is described as follows: cytopathic effect (CPE) antiviral test in MDCK cells, IFVA/Weiss/43. The settings on record: unidentified influenza virus, MDCK, 120 h, read-out: EC50(IFVA/Weiss/43), MDCK cells, CPE method, CCK-8 cell viability, 5 days.
Another assay relates to IFVA/Mal/302/54. The assay is described as follows: cytopathic effect (CPE) antiviral test in MDCK cells, IFVA/Mal/302/54. The settings on record: unidentified influenza virus, MDCK, 120 h, read-out: EC50(IFVA/Mal/302/54), MDCK cells, CPE method, CCK-8 cell viability, 5 days.

For the compound `O=C(Nc1ccc2oc(-c3ccnc(C(=O)N4CCN([C@H](c5ccccc5)c5nnn(C(F)F)n5)CC4)c3)nc2c1)[C@@H]1CC1(F)F` [Compound 73, (S)—N-(2-(2-(4-((R)-(2-(difluoromethyl)-2H-tetrazol-5-yl)(phenyl)methyl)piperazine-1-carbonyl)pyridin-4-yl)benzo[d]oxazol-5-yl)-2,2-difluorocyclopropane-1-carboxamide], the values for the EC50 in the assay with IFV A/PR/8/34, in the assay with IFVA/Weiss/43 and with IFVA/Mal/302/54 were 3 nM, 2 nM and 6 nM, respectively.
With `O=C(Nc1ccc2oc(-c3ccnc(C(=O)N4CCN([C@H](c5ccccc5)c5nnn(C(F)F)n5)CC4)c3)nc2c1)[C@@H]1C[C@@H]1F` [Compound 75, (1S,2S)—N-(2-(2-(4-((R)-(2-(difluoromethyl)-2H-tetrazol-5-yl)(phenyl)methyl)piperazine-1-carbonyl)pyridin-4-yl)benzo[d]oxazol-5-yl)-2-fluorocyclopropane-1-carboxamide], the figures for the EC50 with IFV A/PR/8/34, with IFVA/Weiss/43 and in the assay with IFVA/Mal/302/54 were 2 nM, 2 nM and 6 nM, respectively.
Consider `Cc1nnn(C(c2ccccc2)C2CCN(C(=O)c3cc(-c4nc5cc(NC(=O)[C@@H]6C[C@@H]6F)ccc5o4)ccn3)CC2)n1` (stereo partly drawn) [Compound 85, (1S,2S)-2-fluoro-N-(2-(2-(4-((5-methyl-2H-tetrazol-2-yl)(phenyl)methyl)piperidine-1-carbonyl)pyridin-4-yl)benzo[d]oxazol-5-yl)cyclopropanecarboxamide], for which the EC50 in the assay on IFV A/PR/8/34, with IFVA/Weiss/43 and with IFVA/Mal/302/54 was 4 nM throughout.

Values taken from US20230079045A1 (priority 2019, published 2023).
